In patent US20230093099A1, “COMPOUNDS AND METHODS OF TREATING CANCERS” (CULLGEN (SHANGHAI), INC., priority 2019, published 2023):

test system: RS4;11 cells; assay: Cell viability assay (CellTiter-Glo) in RS4;11 cells; format: cell-based; details: Homo sapiens, 72 h; RS4;11 ALL cells treated for three days; read-out: cell viability inhibition IC50
Method in brief: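 RS4;11 cells seeded at 5000 per well, exposed for 3 days to 8- or 12-point 3-fold serial dilutions. Viability read by CellTiter-Glo luminescence; IC50 fitted by nonlinear least-squares regression.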

Compound | IC50
Cc1cnc(Nc2ccc(N3CCN(CC(=O)NCCCCCNc4cccc5c4C(=O)N(C4CCC(=O)NC4=O)C5=O)CC3)cc2)nc1Nc1cccc(S(=O)(=O)NC(C)(C)C)c1 (centres unmarked) [JA-093, 2-(4-(4-((4-((3-(N-(tert-butyl)sulfamoyl)phenyl)amino)-5-methylpyrimidin-2-yl)amino)phenyl)piperazin-1-yl)-N-(5-((2-(2,6-dioxopiperidin-3-yl)-1,3-dioxoisoindolin-4-yl)amino)pentyl)acetamide] | < 100 nM

same assay, conditions: Homo sapiens, 72 h; RS4;11 cells; cell viability, 3 days, CellTiter-Glo; read-out: IC50

Compound | IC50
Cc1cnc(Nc2ccc(N3CCN(CC(=O)NCCCCCNc4cccc5c4C(=O)N(C4CCC(=O)NC4=O)C5=O)CC3)cc2)nc1Nc1cccc(S(=O)(=O)NC(C)(C)C)c1 (centres unmarked) [JA-093, 2-(4-(4-((4-((3-(N-(tert-butyl)sulfamoyl)phenyl)amino)-5-methylpyrimidin-2-yl)amino)phenyl)piperazin-1-yl)-N-(5-((2-(2,6-dioxopiperidin-3-yl)-1,3-dioxoisoindolin-4-yl)amino)pentyl)acetamide] | 73.3 nM
Cc1ncsc1-c1ccc(CNC(=O)[C@@H]2C[C@@H](O)CN2C(=O)[C@@H](NC(=O)CCCCCCCCCNC(=O)CN2CCC(n3cc(-c4cnc5cccc(-c6cc(F)c(CN7CCOCC7)c(F)c6)c5n4)cn3)CC2)C(C)(C)C)cc1 [JA-166, (2S,4R)-1-((S)-2-(10-(2-(4-(4-(8-(3,5-Difluoro-4-(morpholinomethyl)phenyl)quinoxalin-2-yl)-1H-pyrazol-1-yl)piperidin-1-yl)acetamido)decanamido)-3,3-dimethylbutanoyl)-4-hydroxy-N-(4-(4-methylthiazol-5-yl)benzyl)pyrrolidine-2-carboxamide] | 4450 nM
Cc1cnc(Nc2ccc(N3CCN(CC(=O)NCCOCCOCCOCC(=O)N[C@H](C(=O)N4C[C@H](O)C[C@H]4C(=O)NCc4ccc(-c5scnc5C)cc4)C(C)(C)C)CC3)cc2)nc1Nc1cccc(S(=O)(=O)NC(C)(C)C)c1 [JA-220, (2S,4R)-1-((S)-2-(tert-butyl)-17-(4-(4-((4-((3-(N-(tert-butyl)sulfamoyl)phenyl)amino)-5-methylpyrimidin-2-yl)amino)phenyl)piperazin-1-yl)-4,16-dioxo-6,9,12-trioxa-3,15-diazaheptadecanoyl)-4-hydroxy-N-(4-(4-methylthiazol-5-yl)benzyl)pyrrolidine-2-carboxamide] | > 10000 nM
Cc1cnc(Nc2ccc(N3CCN(CC(=O)NCCOCC(=O)N[C@H](C(=O)N4C[C@H](O)C[C@H]4C(=O)NCc4ccc(-c5scnc5C)cc4)C(C)(C)C)CC3)cc2)nc1Nc1cccc(S(=O)(=O)NC(C)(C)C)c1 [JA-217, (2S,4R)-1-((S)-2-(2-(2-(2-(4-(4-((4-((3-(N-(tert-butyl)sulfamoyl)phenyl)amino)-5-methylpyrimidin-2-yl)amino)phenyl)piperazin-1-yl)acetamido)ethoxy)acetamido)-3,3-dimethylbutanoyl)-4-hydroxy-N-(4-(4-methylthiazol-5-yl)benzyl)pyrrolidine-2-carboxamide] | 5600 nM
Cc1cnc(Nc2ccc(N3CCN(CC(=O)NCCCCCCNc4ccc5c(c4)C(=O)N(C4CCC(=O)NC4=O)C5=O)CC3)cc2)nc1Nc1cccc(S(=O)(=O)NC(C)(C)C)c1 (centres unmarked) [JA-245, 2-(4-(4-((4-((3-(N-(tert-butyl)sulfamoyl)phenyl)amino)-5-methylpyrimidin-2-yl)amino)phenyl)piperazin-1-yl)-N-(6-((2-(2,6-dioxopiperidin-3-yl)-1,3-dioxoisoindolin-5-yl)amino)hexyl)acetamide] | 150 nM
Cc1ncsc1-c1ccc(CNC(=O)[C@@H]2C[C@@H](O)CN2C(=O)[C@@H](NC(=O)COCCOCCNC(=O)CN2CCC(n3cc(-c4cnc5cccc(-c6cc(F)c(CN7CCOCC7)c(F)c6)c5n4)cn3)CC2)C(C)(C)C)cc1 [JA-163, (2S,4R)-1-((S)-2-(tert-Butyl)-14-(4-(4-(8-(3,5-difluoro-4-(morpholinomethyl)phenyl)quinoxalin-2-yl)-1H-pyrazol-1-yl)piperidin-1-yl)-4,13-dioxo-6,9-dioxa-3,12-diazatetradecanoyl)-4-hydroxy-N-(4-(4-methylthiazol-5-yl)benzyl)pyrrolidine-2-carboxamide] | > 10000 nM
O=C(CN1CCC(n2cc(-c3cnc4cccc(-c5cc(F)c(CN6CCOCC6)c(F)c5)c4n3)cn2)CC1)NCCCCCCNc1ccc2c(c1)C(=O)N(C1CCC(=O)NC1=O)C2=O (centres unmarked) [JA-178, 2-(4-(4-(8-(3,5-Difluoro-4-(morpholinomethyl)phenyl)quinoxalin-2-yl)-1H-pyrazol-1-yl)piperidin-1-yl)-N-(6-((2-(2,6-dioxopiperidin-3-yl)-1,3-dioxoisoindolin-5-yl)amino)hexyl)acetamide] | 1900 nM
Cc1ncsc1-c1ccc(CNC(=O)[C@@H]2C[C@@H](O)CN2C(=O)[C@@H](NC(=O)COCCOCCOCCNC(=O)CN2CCC(n3cc(-c4cnc5cccc(-c6cc(F)c(CN7CCOCC7)c(F)c6)c5n4)cn3)CC2)C(C)(C)C)cc1 [JA-157, (2S,4R)-1-((S)-2-(tert-Butyl)-17-(4-(4-(8-(3,5-Difluoro-4-(morpholinomethyl)phenyl)quinoxalin-2-yl)-1H-pyrazol-1-yl)piperidin-1-yl)-4,16-dioxo-6,9,12-trioxa-3,15-diazaheptadecanoyl)-4-hydroxy-N-(4-(4-methylthiazol-5-yl)benzyl)pyrrolidine-2-carboxamide] | > 10000 nM
CS(=O)(=O)c1ccc(-c2cccc3nc(Nc4ccc(N5CCN(C(=O)CCCNc6cccc7c6C(=O)N(C6CCC(=O)NC6=O)C7=O)CC5)cc4)nn23)cc1 (centres unmarked) [JA-010, 2-(2,6-Dioxopiperidin-3-yl)-4-((4-(4-(4-((5-(4-(methylsulfonyl)phenyl)-[1,2,4]triazolo[1,5-a]pyridin-2-yl)amino)phenyl)piperazin-1-yl)-4-oxobutyl)amino)isoindoline-1,3-dione] | > 10000 nM
CS(=O)(=O)c1ccc(-c2cccc3nc(Nc4ccc(N5CCN(CCCCCCCc6ccc7c(c6)C(=O)N(C6CCC(=O)NC6=O)C7=O)CC5)cc4)nn23)cc1 (centres unmarked) [JA-253, 2-(2,6-Dioxopiperidin-3-yl)-5-(7-(4-(4-((5-(4-(methylsulfonyl)phenyl)-[1,2,4]triazolo[1,5-a]pyridin-2-yl)amino)phenyl)piperazin-1-yl)heptyl)isoindoline-1,3-dione] | 298 nM
Cc1cnc(Nc2ccc(N3CCN(C(=O)CCCCNc4ccc5c(c4)C(=O)N(C4CCC(=O)NC4=O)C5=O)CC3)cc2)nc1Nc1cccc(S(=O)(=O)NC(C)(C)C)c1 (centres unmarked) [JA-228, N-(tert-butyl)-3-((2-((4-(4-(5-((2-(2,6-dioxopiperidin-3-yl)-1,3-dioxoisoindolin-5-yl)amino)pentanoyl)piperazin-1-yl)phenyl)amino)-5-methylpyrimidin-4-yl)amino)benzenesulfonamide] | 2010 nM
Cc1cnc(Nc2ccc(N3CCN(C(=O)CCOCCOCCOCCNc4cccc5c4C(=O)N(C4CCC(=O)NC4=O)C5=O)CC3)cc2)nc1Nc1cccc(S(=O)(=O)NC(C)(C)C)c1 (centres unmarked) [JA-019, N-(tert-Butyl)-3-((2-((4-(4-(3-(2-(2-(2-((2-(2,6-dioxopiperidin-3-yl)-1,3-dioxoisoindolin-4-yl)amino)ethoxy)ethoxy)ethoxy)propanoyl)piperazin-1-yl)phenyl)amino)-5-methylpyrimidin-4-yl)amino)benzenesulfonamide] | 357 nM
Cc1cnc(Nc2ccc(N3CCN(C(=O)CCNc4ccc5c(c4)C(=O)N(C4CCC(=O)NC4=O)C5=O)CC3)cc2)nc1Nc1cccc(S(=O)(=O)NC(C)(C)C)c1 (centres unmarked) [JA-226, N-(tert-butyl)-3-((2-((4-(4-(3-((2-(2,6-dioxopiperidin-3-yl)-1,3-dioxoisoindolin-5-yl)amino)propanoyl)piperazin-1-yl)phenyl)amino)-5-methylpyrimidin-4-yl)amino)benzenesulfonamide] | 365 nM
